Our source for the IC50 values is patent US8071768B2, “Alkylquinoline and alkylquinazoline kinase modulators” (Janssen Pharmaceutica, N.V., priority 2005, dated 2011).

A value given as a limit tells only on which side of the number the result lay.

The target of this assay is T1, TrkB (Homo sapiens, UniProt Q16620).
T1 construct: purchased Upstate 14-507M
The experiment in a line: Trk B Fluorescence Polarization Kinase Assay. It is filed as biochemical. As to conditions: uncertainty ±10%. Put shortly: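 The TrkB kinase reaction (50 nM enzyme, 20 ug/mL poly Glu4Tyr, 150 uM ATP, 5 mM MgCl2, 1% DMSO) ran 30 minutes at room temperature and was stopped with EDTA. Phosphorylation was detected by fluorescence-polarization displacement of a fluorescein phosphopeptide from an anti-phosphotyrosine antibody. IC50 came from a variable-slope sigmoidal fit of triplicates.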
For orientation: In fluorescence polarisation assays a small probe gives low polarisation when free and higher when bound to something large.

T1 sequence (Q16620 32-822): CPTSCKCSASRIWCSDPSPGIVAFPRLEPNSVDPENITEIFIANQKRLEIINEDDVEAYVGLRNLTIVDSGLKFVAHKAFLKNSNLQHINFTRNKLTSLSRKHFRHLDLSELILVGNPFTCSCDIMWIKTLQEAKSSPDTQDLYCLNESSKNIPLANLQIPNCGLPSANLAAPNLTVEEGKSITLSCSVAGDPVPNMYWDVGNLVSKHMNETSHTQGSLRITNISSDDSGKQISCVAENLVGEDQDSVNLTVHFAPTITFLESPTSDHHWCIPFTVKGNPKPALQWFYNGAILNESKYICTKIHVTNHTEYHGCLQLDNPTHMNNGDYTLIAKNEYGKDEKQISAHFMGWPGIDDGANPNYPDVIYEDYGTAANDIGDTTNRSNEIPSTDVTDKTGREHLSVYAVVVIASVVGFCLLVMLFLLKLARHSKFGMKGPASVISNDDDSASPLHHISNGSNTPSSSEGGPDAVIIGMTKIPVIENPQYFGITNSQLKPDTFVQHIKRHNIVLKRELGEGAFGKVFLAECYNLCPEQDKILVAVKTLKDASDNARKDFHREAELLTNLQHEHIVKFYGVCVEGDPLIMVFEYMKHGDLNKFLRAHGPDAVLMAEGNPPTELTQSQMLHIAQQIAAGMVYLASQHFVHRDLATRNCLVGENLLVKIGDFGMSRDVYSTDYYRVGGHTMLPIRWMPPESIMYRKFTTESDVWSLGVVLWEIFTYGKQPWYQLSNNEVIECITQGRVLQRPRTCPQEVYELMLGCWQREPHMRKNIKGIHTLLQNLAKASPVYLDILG

By IC50 is commonly meant the concentration that inhibits the measured activity by half. In turn, `COc1cc2ncnc(C3CCN(C(=O)Nc4ccc(-c5ccc(Cl)nc5)cc4)CC3)c2cc1OC` [Compound 60, 4-(6,7-Dimethoxy-quinazolin-4-yl)-piperidine-1-carboxylic acid [4-(6-chloro-pyridin-3-yl)-phenyl]-amide] came in with a half-inhibitory concentration (IC50) of 8.1 µM. On to `CN1CCN(CCCOc2ccc3c(C4CCN(C(=O)Nc5ccc(N6CCCC6)nc5)CC4)ncnc3c2)CC1` [Compound 104, 4-{7-[3-(4-Methyl-piperazin-1-yl)-propoxy]-quinazolin-4-yl}-piperidine-1-carboxylic acid (6-pyrrolidin-1-yl-pyridin-3-yl)-amide], for which the IC50 is 0.8 µM. As for `CC(=O)N1CCN(CCCOc2ccc3c(C4CCN(C(=O)Nc5ccc(N6CCOCC6)cc5)CC4)ncnc3c2)CC1` [Compound 117, 4-{7-[3-(4-Acetyl-piperazin-1-yl)-propoxy]-quinazolin-4-yl}-piperidine-1-carboxylic acid (4-morpholin-4-yl-phenyl)-amide], the IC50 is greater than 20 µM. The molecule `CCN(CC)CCCOc1ccc2c(C3CCN(C(=O)Nc4ccc(N5CCOCC5)cc4)CC3)ncnc2c1` [Compound 134, 4-[7-(3-Diethylamino-propoxy)-quinazolin-4-yl]-piperidine-1-carboxylic acid (4-morpholin-4-yl-phenyl)-amide] displayed an IC50 greater than 42 µM. On to `CC(C)Oc1ccc(NC(=O)N2CCC(c3ncnc4ccc(C#CCO)cc34)CC2)cc1` [Compound 12, 4-[6-(3-Hydroxy-prop-1-ynyl)-quinazolin-4-yl]-piperidine-1-carboxylic acid (4-isopropoxy-phenyl)-amide], for which the IC50 is 0.5 µM.

`CS(=O)(=O)NCCCOc1ccc2c(C3CCN(C(=O)Nc4ccc(N5CCCC5)nc4)CC3)ncnc2c1` [Compound 86, 4-[7-(3-Methanesulfonylamino-propoxy)-quinazolin-4-yl]-piperidine-1-carboxylic acid (6-pyrrolidin-1-yl-pyridin-3-yl)-amide] returned an IC50 of 2 µM. Molecule `CS(=O)(=O)N1CCN(CCCOc2ccc3c(C4CCN(C(=O)Nc5ccc(N6CCOCC6)cc5)CC4)ncnc3c2)CC1` [Compound 118, 4-{7-[3-(4-Methanesulfonyl-piperazin-1-yl)-propoxy]-quinazolin-4-yl}-piperidine-1-carboxylic acid (4-morpholin-4-yl-phenyl)-amide] yielded an IC50 of 14.6 µM. The result for `COc1cc2ncnc(C3CCN(C(=O)Nc4ccc5c(c4)CCO5)CC3)c2cc1OC` [Compound 27, 4-(6,7-Dimethoxy-quinazolin-4-yl)-piperidine-1-carboxylic acid (2,3-dihydro-benzofuran-5-yl)-amide] reads 9.4 µM; that for `COc1cc2ncnc(C3CCN(C(=O)Nc4ccccc4)CC3)c2cc1OC` [Compound 45, 4-(6,7-Dimethoxy-quinazolin-4-yl)-piperidine-1-carboxylic acid phenylamide], 6.5 µM.

In turn, `CC(C)Oc1ccc(NC(=O)N2CCC(c3ncnc4cc(OCCN5CCOC5=O)ccc34)CC2)cc1` [Compound 79, 4-{7-[2-(2-Oxo-oxazolidin-3-yl)-ethoxy]-quinazolin-4-yl}-piperidine-1-carboxylic acid (4-isopropoxy-phenyl)-amide] returned an IC50 of 0.3 µM. The result for `O=C(Nc1ccc(N2CCOCC2)cc1)N1CCC(c2ncnc3cc(N4CC[C@H](O)C4)ccc23)CC1` [Compound 128, 4-[7-(3-Hydroxy-pyrrolidin-1-yl)-quinazolin-4-yl]-piperidine-1-carboxylic acid (4-morpholin-4-yl-phenyl)-amide] reads greater than 20 µM. In the case of `O=C(Nc1ccc(N2CCOCC2)cc1)N1CCC(c2ncnc3cc(OCCN4CCOCC4)ccc23)CC1` [Compound 96, 4-[7-(2-Morpholin-4-yl-ethoxy)-quinazolin-4-yl]-piperidine-1-carboxylic acid (4-morpholin-4-yl-phenyl)-amide], the half-maximal inhibitory concentration (IC50) was determined as 27.9 µM.
